Data taken from ChEMBL document CHEMBL5625252, “Synthesis of peptidomimetics as antibiotic adjuvants for combination with aztreonam to combat MDR Pseudomonas aeruginosa” (Eur J Med Chem, 2023).
Values after ≈ are worked out from the molar mass of the structure shown. Active and inactive are the calls of the source. The calls are words filed in the database; no cut-off is given here.

What was measured:
Pseudomonas aeruginosa [1] = test: Antibacterial activity against Pseudomonas aeruginosa PAO1 assessed as inhibition of bacterial growth incubated for 18 hrs by agar dilution method; type: functional
Pseudomonas aeruginosa [2] = test: Antibacterial activity against Pseudomonas aeruginosa 13-35 assessed as inhibition of bacterial growth incubated for 18 hrs by agar dilution method; type: functional
Pseudomonas aeruginosa [3] = test: Antibacterial activity against Pseudomonas aeruginosa 23-Y372 assessed as inhibition of bacterial growth incubated for 18 hrs by agar dilution method; type: functional
Pseudomonas aeruginosa [4] = test: Antibacterial activity against Pseudomonas aeruginosa 16-2 assessed as inhibition of bacterial growth incubated for 18 hrs by agar dilution method; type: functional
Pseudomonas aeruginosa [5] = test: Antibacterial activity against Pseudomonas aeruginosa 23-Y539 assessed as inhibition of bacterial growth incubated for 18 hrs by agar dilution method; type: functional
Pseudomonas aeruginosa [6] = test: Antibacterial activity against Pseudomonas aeruginosa 19-55 assessed as inhibition of bacterial growth incubated for 18 hrs by agar dilution method; type: functional
Pseudomonas aeruginosa [7] = test: Synergistic antibacterial activity against Pseudomonas aeruginosa 16-11 assessed as aztreonam MIC at 128 ug/ml incubated for 18 hrs by checkerboard method; type: functional; conditions: dose 128 µg/ml
Pseudomonas aeruginosa [8] = test: Synergistic antibacterial activity against Pseudomonas aeruginosa 21-8 assessed as aztreonam MIC at 128 ug/ml incubated for 18 hrs by checkerboard method; type: functional; conditions: dose 128 µg/ml
Pseudomonas aeruginosa [9] = test: Synergistic antibacterial activity against Pseudomonas aeruginosa 13-35 assessed as aztreonam MIC at 128 ug/ml incubated for 18 hrs by checkerboard method; type: functional; conditions: dose 128 µg/ml
Pseudomonas aeruginosa [10] = test: Synergistic antibacterial activity against Pseudomonas aeruginosa 23-Y417 assessed as aztreonam MIC at 128 ug/ml incubated for 18 hrs by checkerboard method; type: functional; conditions: dose 128 µg/ml
Pseudomonas aeruginosa [11] = test: Synergistic antibacterial activity against Pseudomonas aeruginosa 23-Y511 assessed as aztreonam MIC at 128 ug/ml incubated for 18 hrs by checkerboard method; type: functional; conditions: dose 128 µg/ml
Pseudomonas aeruginosa [12] = test: Synergistic antibacterial activity against Pseudomonas aeruginosa 13-3 assessed as aztreonam MIC at 128 ug/ml incubated for 18 hrs by checkerboard method; type: functional; conditions: dose 128 µg/ml
Pseudomonas aeruginosa [13] = test: Synergistic antibacterial activity against Pseudomonas aeruginosa 21-2 assessed as aztreonam MIC at 128 ug/ml incubated for 18 hrs by checkerboard method; type: functional; conditions: dose 128 µg/ml
Pseudomonas aeruginosa [14] = test: Synergistic antibacterial activity against Pseudomonas aeruginosa 19-46 assessed as aztreonam MIC at 128 ug/ml incubated for 18 hrs by checkerboard method; type: functional; conditions: dose 128 µg/ml
Pseudomonas aeruginosa [15] = test: Synergistic antibacterial activity against Pseudomonas aeruginosa 19-55 assessed as aztreonam MIC at 128 ug/ml incubated for 18 hrs by checkerboard method; type: functional; conditions: dose 128 µg/ml
Pseudomonas aeruginosa [16] = test: Synergistic antibacterial activity against Pseudomonas aeruginosa 21-7 assessed as aztreonam MIC at 128 ug/ml incubated for 18 hrs by checkerboard method; type: functional; conditions: dose 128 µg/ml
Pseudomonas aeruginosa [17] = test: Antibacterial activity against Pseudomonas aeruginosa PAO1 at 128 ug/ml measured upto 24 hrs in presence of aztreonam by time-kill assay; type: functional, organism-based; conditions: dose 128.0 µg/ml
Pseudomonas aeruginosa [18] = test: Antibacterial activity against Pseudomonas aeruginosa PAO1 at 128 ug/ml measured upto 24 hrs by time-kill assay; type: functional, organism-based; conditions: dose 128.0 µg/ml
Pseudomonas aeruginosa [19] = test: Antibacterial activity against Pseudomonas aeruginosa 16-2 at 128 ug/ml measured upto 24 hrs by time-kill assay; type: functional, organism-based; conditions: dose 128.0 µg/ml
Pseudomonas aeruginosa [20] = test: Antibacterial activity against Pseudomonas aeruginosa PAO1 assessed as decrease in log10 CFU at 128 ug/ml measured after 24 hrs in presence of aztreonam by time-kill assay; type: functional; conditions: dose 128 µg/ml
Pseudomonas aeruginosa [21] = test: Antibacterial activity against Pseudomonas aeruginosa 16-2 assessed as decrease in log10 CFU at 128 ug/ml measured after 24 hrs in presence of aztreonam by time-kill assay; type: functional; conditions: dose 128 µg/ml
Pseudomonas aeruginosa [22] = test: Antibacterial activity against Pseudomonas aeruginosa 16-2 infected in Galleria mellonella assessed as larvae survival rate at 100 mg/kg after 96 hrs of innoculation; type: functional
Pseudomonas aeruginosa [23] = test: Antibacterial activity against Pseudomonas aeruginosa PAO1 infected in Galleria mellonella assessed as larvae survival rate at 100 mg/kg measured after 96 hrs post inoculation in presence of 50 mg/kg aztreonam; type: functional
Pseudomonas aeruginosa [24] = test: Synergistic antibacterial activity against Pseudomonas aeruginosa PAO1 assessed as aztreonam MIC in CAMH broth medium supplemented with 0.41 to 0.51 mM Mg2+ by checkerboard assay; type: functional
Pseudomonas aeruginosa [25] = test: Synergistic antibacterial activity against Pseudomonas aeruginosa 12-1 assessed as aztreonam MIC in CAMH broth medium supplemented with 0.41 to 0.51 mM Mg2+ by checkerboard assay; type: functional
Pseudomonas aeruginosa [26] = test: Synergistic antibacterial activity against Pseudomonas aeruginosa PAO1 assessed as aztreonam MIC in CAMH broth medium supplemented with 20.99 to 21.09 mM Mg2+ by checkerboard assay; type: functional
Pseudomonas aeruginosa [27] = test: Synergistic antibacterial activity against Pseudomonas aeruginosa 16-11 assessed as aztreonam MIC in CAMH broth medium supplemented with 20.99 to 21.09 mM Mg2+ by checkerboard assay; type: functional
Pseudomonas aeruginosa [28] = test: Synergistic antibacterial activity against Pseudomonas aeruginosa 13-35 assessed as aztreonam MIC in CAMH broth medium supplemented with 20.99 to 21.09 mM Mg2+ by checkerboard assay; type: functional

Compound NCCC[C@H](NC(=O)C[C@@H](N)Cc1ccccc1)C(=O)Nc1ccc2ccccc2c1 has an MIC (Pseudomonas aeruginosa [1]) of 512 µg/mL (≈ 1220 µM), an MIC (Pseudomonas aeruginosa [2]) of 512 µg/mL (≈ 1220 µM) and an MIC (Pseudomonas aeruginosa [3]) of 512 µg/mL (≈ 1220 µM). It also gave an MIC (Pseudomonas aeruginosa [4]) of 513 µg/mL (≈ 1230 µM), an MIC (Pseudomonas aeruginosa [5]) of 512 µg/mL (≈ 1220 µM) and an MIC (Pseudomonas aeruginosa [6]) of 512 µg/mL (≈ 1220 µM). It also gave an MIC (Pseudomonas aeruginosa [7]) of 2 µg/mL, an MIC (Pseudomonas aeruginosa [8]) of 2 µg/mL and an MIC (Pseudomonas aeruginosa [9]) of 4 µg/mL. It also gave an MIC (Pseudomonas aeruginosa [10]) of 8 µg/mL, an MIC (Pseudomonas aeruginosa [11]) of 16 µg/mL and an MIC (Pseudomonas aeruginosa [12]) of 8 µg/mL. The MIC (Pseudomonas aeruginosa [13]) was 16 µg/mL, the MIC (Pseudomonas aeruginosa [14]) was 16 µg/mL and the MIC (Pseudomonas aeruginosa [15]) was 8 µg/mL. For the same compound, the MIC (Pseudomonas aeruginosa [16]) was 64 µg/mL, the Activity (Pseudomonas aeruginosa [17]) was “Active” and the Activity (Pseudomonas aeruginosa [18]) was “inactive”. For the same compound, the Activity (Pseudomonas aeruginosa [19]) was “inactive”, the Activity (Pseudomonas aeruginosa [20]) was over 2 log10CFU/ml and the Activity (Pseudomonas aeruginosa [21]) was over 2 log10CFU/ml. It also gave an Activity (Pseudomonas aeruginosa [22]) of 20%, an Activity (Pseudomonas aeruginosa [23]) of 80% and an MIC (Pseudomonas aeruginosa [24]) of 2 µg/mL. It also gave an MIC (Pseudomonas aeruginosa [25]) of 16 µg/mL, an MIC (Pseudomonas aeruginosa [26]) of 8 µg/mL and an MIC (Pseudomonas aeruginosa [27]) of 8 µg/mL. For the same compound, the MIC (Pseudomonas aeruginosa [28]) was 32 µg/mL.
